Assay results published in the supplement of paper PMC10307832.

Experiments:
Assay in all cases: relative viability (nuclei count vs DMSO), 5 days (fraction); higher = more cells survive
[1] = compound: C1=CC=C2C(=C1)N=C(S2)C(C#N)C3=NC(=NC=C3)NCCC4=CN=CC=C4 + O=C(c1cc(Cc2n[nH]c(=O)c3ccccc23)ccc1F)N1CCN(C(=O)C2CC2)CC1 [Olaparib] (partner 8 µM)
Summary of the method: (§1)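 Each reported value is a median over duplicate plates. It expresses relative viability: treated-well nuclei count divided by vehicle-well nuclei count. Lung cancer cell lines in 1536-well plates were dosed by pin tool a day after seeding, alone with one drug or with a fixed anchor-drug dose plus five library-drug doses (not always all listed) in √10 steps, and nuclei were counted after 5 days.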

Vandetanib + Foretinib = compound: COc1cc2/c(=N/c3ccc(Br)cc3F)nc[nH]c2cc1OCC1CCN(C)CC1 [Vandetanib] + COc1cc2c(Oc3ccc(NC(=O)C4(C(=O)Nc5ccc(F)cc5)CC4)cc3F)ccnc2cc1OCCCN1CCOCC1 [Foretinib] (partner 0.25 µM)
Summary of the method: as §1

CUDC-101 + Foretinib = compound: C#Cc1cccc(Nc2ncnc3cc(OC)c(OCCCCCCC(=O)NO)cc23)c1 [CUDC-101] + COc1cc2c(Oc3ccc(NC(=O)C4(C(=O)Nc5ccc(F)cc5)CC4)cc3F)ccnc2cc1OCCCN1CCOCC1 [Foretinib] (partner 0.25 µM)
Summary of the method: as §1

CUDC-101 + AZD7762 = compound: C#Cc1cccc(Nc2ncnc3cc(OC)c(OCCCCCCC(=O)NO)cc23)c1 [CUDC-101] + NC(=O)Nc1cc(-c2cccc(F)c2)sc1C(=O)N[C@H]1CCCNC1 [AZD7762] (partner 0.2 µM)
Summary of the method: as §1

LCLC-97TM1
relative viability ([1]; first compound 0.005 µM): 0.289 | relative viability ([1]; first compound 0.01581 µM): 0.362 | relative viability ([1]; first compound 0.05 µM): 0.354 | relative viability ([1]; first compound 0.1581 µM): 0.592 | relative viability ([1]; first compound 0.5 µM): 0.362 | relative viability (Vandetanib + Foretinib; first compound 0.02 µM): 1 | relative viability (Vandetanib + Foretinib; first compound 0.06325 µM): 0.904 | relative viability (Vandetanib + Foretinib; first compound 0.2 µM): 0.997 | relative viability (Vandetanib + Foretinib; first compound 0.6325 µM): 0.942 | relative viability (Vandetanib + Foretinib; first compound 2 µM): 0.868 | relative viability (CUDC-101 + Foretinib; first compound 0.01 µM): 0.844 | relative viability (CUDC-101 + Foretinib; first compound 0.03162 µM): 0.824 | relative viability (CUDC-101 + Foretinib; first compound 0.1 µM): 0.962 | relative viability (CUDC-101 + Foretinib; first compound 0.3162 µM): 0.829 | relative viability (CUDC-101 + Foretinib; first compound 1 µM): 0.666 | relative viability (CUDC-101 + AZD7762; first compound 0.01 µM): 0.264 | relative viability (CUDC-101 + AZD7762; first compound 0.03162 µM): 0.211 | relative viability (CUDC-101 + AZD7762; first compound 0.1 µM): 0.343 | relative viability (CUDC-101 + AZD7762; first compound 0.3162 µM): 0.305 | relative viability (CUDC-101 + AZD7762; first compound 1 µM): 0.248

LCLC-103H
relative viability ([1]; first compound 0.005 µM): 0.628 | relative viability ([1]; first compound 0.01581 µM): 0.829 | relative viability ([1]; first compound 0.05 µM): 0.764 | relative viability ([1]; first compound 0.1581 µM): 0.849 | relative viability ([1]; first compound 0.5 µM): 0.649 | relative viability (Vandetanib + Foretinib; first compound 0.02 µM): 0.864 | relative viability (Vandetanib + Foretinib; first compound 0.06325 µM): 0.786 | relative viability (Vandetanib + Foretinib; first compound 0.2 µM): 0.679 | relative viability (Vandetanib + Foretinib; first compound 0.6325 µM): 0.899 | relative viability (Vandetanib + Foretinib; first compound 2 µM): 0.714 | relative viability (CUDC-101 + Foretinib; first compound 0.01 µM): 0.753 | relative viability (CUDC-101 + Foretinib; first compound 0.03162 µM): 0.854 | relative viability (CUDC-101 + Foretinib; first compound 0.1 µM): 0.808 | relative viability (CUDC-101 + Foretinib; first compound 0.3162 µM): 0.751 | relative viability (CUDC-101 + Foretinib; first compound 1 µM): 0.513 | relative viability (CUDC-101 + AZD7762; first compound 0.01 µM): 0.674 | relative viability (CUDC-101 + AZD7762; first compound 0.03162 µM): 0.739 | relative viability (CUDC-101 + AZD7762; first compound 0.1 µM): 0.761 | relative viability (CUDC-101 + AZD7762; first compound 0.3162 µM): 0.877 | relative viability (CUDC-101 + AZD7762; first compound 1 µM): 0.675

LK-2
relative viability ([1]; first compound 0.005 µM): 0.645 | relative viability ([1]; first compound 0.01581 µM): 0.804 | relative viability ([1]; first compound 0.05 µM): 0.63 | relative viability ([1]; first compound 0.1581 µM): 0.754 | relative viability ([1]; first compound 0.5 µM): 0.766 | relative viability (Vandetanib + Foretinib; first compound 0.02 µM): 1.19 | relative viability (Vandetanib + Foretinib; first compound 0.06325 µM): 1.16 | relative viability (Vandetanib + Foretinib; first compound 0.2 µM): 0.88 | relative viability (Vandetanib + Foretinib; first compound 0.6325 µM): 1.22 | relative viability (Vandetanib + Foretinib; first compound 2 µM): 1.08 | relative viability (CUDC-101 + Foretinib; first compound 0.01 µM): 1.23 | relative viability (CUDC-101 + Foretinib; first compound 0.03162 µM): 1.19 | relative viability (CUDC-101 + Foretinib; first compound 0.1 µM): 0.957 | relative viability (CUDC-101 + Foretinib; first compound 0.3162 µM): 0.819 | relative viability (CUDC-101 + Foretinib; first compound 1 µM): 0.554 | relative viability (CUDC-101 + AZD7762; first compound 0.01 µM): 0.508 | relative viability (CUDC-101 + AZD7762; first compound 0.03162 µM): 0.422 | relative viability (CUDC-101 + AZD7762; first compound 0.1 µM): 0.336 | relative viability (CUDC-101 + AZD7762; first compound 0.3162 µM): 0.263 | relative viability (CUDC-101 + AZD7762; first compound 1 µM): 0.0851

LOU-NH91
relative viability ([1]; first compound 0.005 µM): 0.914 | relative viability ([1]; first compound 0.01581 µM): 0.914 | relative viability ([1]; first compound 0.05 µM): 0.826 | relative viability ([1]; first compound 0.1581 µM): 0.888 | relative viability ([1]; first compound 0.5 µM): 0.801 | relative viability (Vandetanib + Foretinib; first compound 0.02 µM): 0.972 | relative viability (Vandetanib + Foretinib; first compound 0.06325 µM): 0.807 | relative viability (Vandetanib + Foretinib; first compound 0.2 µM): 0.787 | relative viability (Vandetanib + Foretinib; first compound 0.6325 µM): 0.713 | relative viability (Vandetanib + Foretinib; first compound 2 µM): 0.578 | relative viability (CUDC-101 + Foretinib; first compound 0.01 µM): 0.862 | relative viability (CUDC-101 + Foretinib; first compound 0.03162 µM): 0.634 | relative viability (CUDC-101 + Foretinib; first compound 0.1 µM): 0.552 | relative viability (CUDC-101 + Foretinib; first compound 0.3162 µM): 0.589 | relative viability (CUDC-101 + Foretinib; first compound 1 µM): 0.584 | relative viability (CUDC-101 + AZD7762; first compound 0.01 µM): 0.754 | relative viability (CUDC-101 + AZD7762; first compound 0.03162 µM): 0.751 | relative viability (CUDC-101 + AZD7762; first compound 0.1 µM): 0.741 | relative viability (CUDC-101 + AZD7762; first compound 0.3162 µM): 0.798 | relative viability (CUDC-101 + AZD7762; first compound 1 µM): 0.556

LU99A
relative viability ([1]; first compound 0.005 µM): 0.247 | relative viability ([1]; first compound 0.01581 µM): 0.272 | relative viability ([1]; first compound 0.1581 µM): 0.265 | relative viability ([1]; first compound 0.5 µM): 0.232 | relative viability (Vandetanib + Foretinib; first compound 0.02 µM): 0.842 | relative viability (Vandetanib + Foretinib; first compound 0.06325 µM): 0.757 | relative viability (Vandetanib + Foretinib; first compound 0.2 µM): 0.878 | relative viability (Vandetanib + Foretinib; first compound 0.6325 µM): 0.783 | relative viability (Vandetanib + Foretinib; first compound 2 µM): 0.823 | relative viability (CUDC-101 + Foretinib; first compound 0.01 µM): 0.931 | relative viability (CUDC-101 + Foretinib; first compound 0.03162 µM): 0.881 | relative viability (CUDC-101 + Foretinib; first compound 0.1 µM): 0.684 | relative viability (CUDC-101 + Foretinib; first compound 0.3162 µM): 0.798 | relative viability (CUDC-101 + Foretinib; first compound 1 µM): 0.388 | relative viability (CUDC-101 + AZD7762; first compound 0.01 µM): 0.301 | relative viability (CUDC-101 + AZD7762; first compound 0.03162 µM): 0.297 | relative viability (CUDC-101 + AZD7762; first compound 0.1 µM): 0.247 | relative viability (CUDC-101 + AZD7762; first compound 0.3162 µM): 0.198 | relative viability (CUDC-101 + AZD7762; first compound 1 µM): 0.104

LXF-289
relative viability ([1]; first compound 0.005 µM): 0.966 | relative viability ([1]; first compound 0.01581 µM): 1.13 | relative viability ([1]; first compound 0.05 µM): 1.1 | relative viability ([1]; first compound 0.1581 µM): 1.17 | relative viability ([1]; first compound 0.5 µM): 0.979 | relative viability (Vandetanib + Foretinib; first compound 0.02 µM): 1.01 | relative viability (Vandetanib + Foretinib; first compound 0.06325 µM): 0.954 | relative viability (Vandetanib + Foretinib; first compound 0.2 µM): 0.978 | relative viability (Vandetanib + Foretinib; first compound 0.6325 µM): 0.968 | relative viability (Vandetanib + Foretinib; first compound 2 µM): 0.937 | relative viability (CUDC-101 + Foretinib; first compound 0.01 µM): 0.972 | relative viability (CUDC-101 + Foretinib; first compound 0.03162 µM): 0.932 | relative viability (CUDC-101 + Foretinib; first compound 0.1 µM): 0.937 | relative viability (CUDC-101 + Foretinib; first compound 0.3162 µM): 0.877 | relative viability (CUDC-101 + Foretinib; first compound 1 µM): 0.497 | relative viability (CUDC-101 + AZD7762; first compound 0.01 µM): 1.08 | relative viability (CUDC-101 + AZD7762; first compound 0.03162 µM): 1.13 | relative viability (CUDC-101 + AZD7762; first compound 0.1 µM): 1.02 | relative viability (CUDC-101 + AZD7762; first compound 0.3162 µM): 1.07 | relative viability (CUDC-101 + AZD7762; first compound 1 µM): 0.811

NCI-H23
relative viability ([1]; first compound 0.01581 µM): 0.33 | relative viability ([1]; first compound 0.05 µM): 0.276 | relative viability ([1]; first compound 0.1581 µM): 0.303 | relative viability ([1]; first compound 0.5 µM): 0.282 | relative viability (Vandetanib + Foretinib; first compound 0.02 µM): 0.917 | relative viability (Vandetanib + Foretinib; first compound 0.06325 µM): 1 | relative viability (Vandetanib + Foretinib; first compound 0.2 µM): 0.304 | relative viability (Vandetanib + Foretinib; first compound 0.6325 µM): 0.947 | relative viability (Vandetanib + Foretinib; first compound 2 µM): 0.898 | relative viability (CUDC-101 + Foretinib; first compound 0.01 µM): 1.06 | relative viability (CUDC-101 + Foretinib; first compound 0.03162 µM): 1 | relative viability (CUDC-101 + Foretinib; first compound 0.1 µM): 1.04 | relative viability (CUDC-101 + Foretinib; first compound 0.3162 µM): 1.06 | relative viability (CUDC-101 + Foretinib; first compound 1 µM): 0.949 | relative viability (CUDC-101 + AZD7762; first compound 0.01 µM): 0.293 | relative viability (CUDC-101 + AZD7762; first compound 0.03162 µM): 0.161 | relative viability (CUDC-101 + AZD7762; first compound 0.1 µM): 0.282 | relative viability (CUDC-101 + AZD7762; first compound 0.3162 µM): 0.276 | relative viability (CUDC-101 + AZD7762; first compound 1 µM): 0.226

NCI-H322M
relative viability ([1]; first compound 0.005 µM): 0.755 | relative viability ([1]; first compound 0.01581 µM): 0.746 | relative viability ([1]; first compound 0.05 µM): 0.779 | relative viability ([1]; first compound 0.1581 µM): 0.78 | relative viability ([1]; first compound 0.5 µM): 0.677 | relative viability (Vandetanib + Foretinib; first compound 0.02 µM): 0.983 | relative viability (Vandetanib + Foretinib; first compound 0.06325 µM): 0.889 | relative viability (Vandetanib + Foretinib; first compound 0.2 µM): 0.959 | relative viability (Vandetanib + Foretinib; first compound 0.6325 µM): 0.841 | relative viability (Vandetanib + Foretinib; first compound 2 µM): 0.674 | relative viability (CUDC-101 + Foretinib; first compound 0.01 µM): 0.833 | relative viability (CUDC-101 + Foretinib; first compound 0.03162 µM): 0.706 | relative viability (CUDC-101 + Foretinib; first compound 0.1 µM): 0.834 | relative viability (CUDC-101 + Foretinib; first compound 0.3162 µM): 0.703 | relative viability (CUDC-101 + Foretinib; first compound 1 µM): 0.503 | relative viability (CUDC-101 + AZD7762; first compound 0.01 µM): 0.558 | relative viability (CUDC-101 + AZD7762; first compound 0.03162 µM): 0.428 | relative viability (CUDC-101 + AZD7762; first compound 0.1 µM): 0.496 | relative viability (CUDC-101 + AZD7762; first compound 0.3162 µM): 0.345 | relative viability (CUDC-101 + AZD7762; first compound 1 µM): 0.353
